# Assay results as given in EP4389751A1, “HETEROCYCLIC COMPOUNDS AND USES THEREOF” (Kumquat Biosciences Inc., priority 2021, dated 2024).
# Target: T1, K-Ras G12S (Homo sapiens, UniProt P01116, G12S)
# T1 construct: made in house; host or cells: E. coli (e.g., BL21 (DE3))
# Experiment: HTRF assay of the K-Ras / SOS1 interaction
# Assay type: biochemical
# Details: IC50 (against K-Ras G12D) to IC50 (against K-Ras G12S)
# Text: This assay can be also used to assess a selective inhibition or reduction of signaling output of a mutant Ras protein relative to a wildtype, or relative to a different mutant Ras protein. For example, the equilibrium interaction of wildtype Kras or K-Ras mutant (e.g., wildtype or a mutant thereof including those mentioned in Example 6) with SOS1 (e.g., hSOS1) can be assessed as a proxy or an indication for a subject compound's ability to bind and inhibit Ras protein. HTRF assay detects from (i) a fluorescence resonance energy transfer (FRET) donor (e.g., antiGST-Europium) that is bound to GST-tagged K-Ras mutant to (ii) a FRET acceptor (e.g., anti-6His-XL665) bound to a His-tagged hSOS 1.
# The assay buffer can contain ~5 mM HEPES pH 7.4, -150 mM NaCI, - 1 mM DTT, 0.05% BSA and 0.0025% (v/v) Igepal. A Ras working solution is prepared in an assay buffer containing typically a suitable amount of the protein construct (e.g., GST-tagged K-Ras mutant) and the FRET donor (e.g., antiGST-Eu(K) from Cisbio, France). A SOS1 working solution is prepared in an assay buffer containing suitable amount of the protein construct (e.g., His-hSOS1) and the FRET acceptor (e.g., anti-6His-XL665 from Cisbio, France). A suitable amount of the protein construct will depend on the range of activity or range of IC50 values being detected or under investigation. For detecting IC50 within a range of 500 nM, the protein constructs of the same range of molarity can be utilized.
# A fixed volume of DMSO with or without test compound is transferred into a 384-well plate. Ras working solution is added to all wells of the test plate. SOS1 working solution is added to all wells except for those that are subsequently filled the inhibitor control solution. Upon incubation for about 10 minutes or longer, the fluorescence is measured with a M1000Pro plate reader (Tecan) using HTRF detection (excitation 337nm, emission 1 : 620nm, emission 2: 665nm). Compounds are tested in duplicates at different concentrations (for example, 10 µM, 2.5 µM, 0.63 µM, 0.16 µM, 0.04 µM, 0.01 µM test compound). The ratiometric data (i.e., emission 2 divided by emission 1) is used to calculate IC50 values against Ras using GraphPad Prism (GraphPad software). Following this general procedure, samples were tested with or without a subject compound disclosed herein including compounds exemplified in Table 3 to assess their abilities to inhibit K-Ras G12S relative to another mutant (e.g., K-Ras G12D). Signaling output measured in terms of IC50 values can be obtained, a ratio of IC50 against one mutant relative to another mutant can be calculated. For instance, a selective reduction of K-Ras G12S signaling output can be evidenced by a ratio greater than one. In particular, a selective reduction of K-Ras G12S signaling relative to K-Ras G12D signaling is evidenced as the ratio of IC50 (against K-Ras G12D) to IC50 (against K-Ras G12S) is greater than 1. […]
row,Compound,Ratio of IC50 KRAS G12D vs. IC50 KRAS G12S
1,"Nc1nc2c(-c3c(Cl)cc4c(N5CCN(C6CN(C(=O)n7cncn7)C6)CC5)nc(OC[C@@]56CCCN5C[C@H](F)C6)nc4c3F)ccc(F)c2s1 [Compound A267, (3-(4-(7-(2-amino-7-fluorobenzo[d]thiazol-4-yl)-6-chloro-8-fluoro-2-(((2R,7aS)-2-fluorotetrahydro-1H-pyrrolizin-7a(5H)-yl)methoxy)quinazolm-4-yl)piperazin-1-yl)azetidin-1-yl)(1H-1,2,4-triazol-1-yl)methanone]",A (A: indicates that the ratio of IC50 against KrasG12D vs. IC50 against KrasG12S is 1-fold or greater)
2,"Nc1nc2c(-c3c(Cl)cc4c(OC5CC6CN(C(=O)n7cncn7)CC65)nc(OC[C@@]56CCCN5C[C@H](F)C6)nc4c3F)ccc(F)c2s1 (stereo partly drawn) [Compound A297, (6-((7-(2-amino-7-fluorobenzo[d]thiazol-4-yl)-6-chloro-8-fluoro-2-(((2R,7aS)-2-fluorotetrahydro-1H-pyrrolizin-7a(5H)-yl)methoxy)quinazolin-4-yl)oxy)-3-azabicyclo[3.2.0]heptan-3-yl)(1H-1,2,4-triazol-1-yl)methanone]",A (A: indicates that the ratio of IC50 against KrasG12D vs. IC50 against KrasG12S is 1-fold or greater)
3,"Nc1nc2c(-c3c(Cl)cc4c(NC5CCN(C(=O)Nc6ccncn6)CC5)nc(OC[C@@]56CCCN5C[C@H](F)C6)nc4c3F)ccc(F)c2s1 [Compound A147, 4-((7-(2-amino-7-fluorobenzo[d]thiazol-4-yl)-6-chloro-8-fluoro-2-(((2R,7aS)-2-fluorotetrahydro-1H-pyrrolizin-7a(5H)-yl)methoxy)quinazolin-4-yl)amino)-N-(pyrimidin-4-yl)piperidine-1-carboxamide]",A (A: indicates that the ratio of IC50 against KrasG12D vs. IC50 against KrasG12S is 1-fold or greater)
4,"N#Cc1c(N)sc2c(F)ccc(-c3c(Cl)cc4c(N5CCN(C(=O)Nc6nccs6)CC(O)C5)nc(OC[C@@]56CCCN5C[C@H](F)C6)nc4c3F)c12 (stereo partly drawn) [Compound A164, 4-(7-(2-amino-3-cyano-7-fluorobenzo[b]thiophen-4-yl)-6-chloro-8-fluoro-2-(((2R,7aS)-2-fluorotetrahydro-1H-pyrrolizin-7a(5H)-yl)methoxy)quinazolin-4-yl)-6-hydroxy-N-(thiazol-2-yl)-1,4-diazepane-1-carboxamide]",A (A: indicates that the ratio of IC50 against KrasG12D vs. IC50 against KrasG12S is 1-fold or greater)
5,"Nc1nc2c(-c3c(Cl)cc4c(N5CC6CCC5CN6C(=O)n5cncn5)nc(OC[C@@]56CCCN5C[C@H](F)C6)nc4c3F)ccc(F)c2s1 (stereo partly drawn) [Compound A192, (5-(7-(2-amino-7-fluorobenzo[d]thiazol-4-yl)-6-chloro-8-fluoro-2-(((2R,7aS)-2-fluorotetrahydro-1H-pyrrolizin-7a(5H)-yl)methoxy)quinazolin-4-yl)-2,5-diazabicyclo[2.2.2]octan-2-yl)(1H-1,2,4-triazol-1-yl)methanone]",A (A: indicates that the ratio of IC50 against KrasG12D vs. IC50 against KrasG12S is 1-fold or greater)
6,"N#Cc1c(N)sc2c(F)ccc(-c3c(Cl)cc4c(N5CCN(CC6CC6)C6(CN(C(=O)n7cncn7)C6)C5)nc(OC[C@@]56CCCN5C[C@H](F)C6)nc4c3F)c12 [Compound A139, 2-amino-4-(6-chloro-4-(5-(cyclopropylmethyl)-2-(1H-1,2,4-triazole-1-carbonyl)-2,5,8-triazaspiro[3.5]nonan-8-yl)-8-fluoro-2-(((2R,7aS)-2-fluorotetrahydro-1H-pyrrolizin-7a(5H)-yl)methoxy)quinazolin-7-yl)-7-fluorobenzo[b]thiophene-3-carbonitrile]",A (A: indicates that the ratio of IC50 against KrasG12D vs. IC50 against KrasG12S is 1-fold or greater)
7,"Nc1nc2c(-c3c(Cl)cc4c(NC5CCC6(C5)CN(C(=O)n5cncn5)C6)nc(OC[C@@]56CCCN5C[C@H](F)C6)nc4c3F)ccc(F)c2s1 (stereo partly drawn) [Compound A142, (6-((7-(2-amino-7-fluorobenzo[d]thiazol-4-yl)-6-chloro-8-fluoro-2-(((2R,7aS)-2-fluorotetrahydro-1H-pyrrolizin-7a(5H)-yl)methoxy)quinazolin-4-yl)amino)-2-azaspiro[3.4]octan-2-yl)(1H-1,2,4-triazol-1-yl)methanone]",A (A: indicates that the ratio of IC50 against KrasG12D vs. IC50 against KrasG12S is 1-fold or greater)
8,"N#Cc1c(N)sc2c(F)ccc(-c3c(Cl)cc4c(N5CCOC6(CN(C(=O)n7cncn7)C6)C5)nc(OC[C@@]56CCCN5C[C@H](F)C6)nc4c3F)c12 [Compound A232, 4-(4-(2-(1H-1,2,4-triazole-1-carbonyl)-5-oxa-2,8-diazaspiro[3.5]nonan-8-yl)-6-chloro-8-fluoro-2-(((2R,7aS)-2-fluorotetrahydro-1H-pyrrolizin-7a(5H)-yl)methoxy)quinazolin-7-yl)-2-amino-7-fluorobenzo[b]thiophene-3-carbonitrile]",A (A: indicates that the ratio of IC50 against KrasG12D vs. IC50 against KrasG12S is 1-fold or greater)
9,"1-(7-(7-(2-amino-7-fluorobenzo[d]thiazol-4-yl)-6-chloro-8-fluoro-2-(((2R,7aS)-2-fluorotetrahydro-1H-pyrrolizin-7a(5H)-yl)methoxy)quinazolm-4-yl)-2,7-diazaspiro[3.5]nonane-2-carbonyl)-1H-imidazole-4-carbonitrile [Compound A179]",A (A: indicates that the ratio of IC50 against KrasG12D vs. IC50 against KrasG12S is 1-fold or greater)
10,"Cc1cnn(C(=O)N2C3CCC2CN(c2nc(OC[C@@]45CCCN4C[C@H](F)C5)nc4c(F)c(-c5ccc(F)c6sc(N)nc56)c(Cl)cc24)C3)c1 [Compound A113, (3-(7-(2-amino-7-fluorobenzo[d]thiazol-4-yl)-6-chloro-8-fluoro-2-(((2R,7aS)-2-fluorotetrahydro-1H-pyrrolizin-7a(5H)-yl)methoxy)quinazolin-4-yl)-3,8-diazabicyclo[3.2.1]octan-8-yl)(4-methyl-1H-pyrazol-1-yl)methanone]",A (A: indicates that the ratio of IC50 against KrasG12D vs. IC50 against KrasG12S is 1-fold or greater)
11,"Nc1nc2c(-c3c(Cl)cc4c(N5C[C@H]6CC[C@@H](C5)N6C(=O)n5ccc(F)n5)nc(OC[C@@]56CCCN5C[C@H](F)C6)nc4c3F)ccc(F)c2s1 [Compound A214, ((1R,5S)-3-(7-(2-amino-7-fluorobenzo[d]thiazol-4-yl)-6-chloro-8-fluoro-2-(((2R,7aS)-2-fluorotetrahydro-1H-pyrrolizin-7a(5H)-yl)methoxy)quinazolin-4-yl)-3,8-diazabicyclo[3.2.1]octan-8-yl)(3-fluoro-1H-pyrazol-1-yl)methanone]",A (A: indicates that the ratio of IC50 against KrasG12D vs. IC50 against KrasG12S is 1-fold or greater)
12,"Nc1nc2c(-c3c(Cl)cc4c(NCCN5CCN(C(=O)n6cncn6)CC5=O)nc(OC[C@@]56CCCN5C[C@H](F)C6)nc4c3F)ccc(F)c2s1 [Compound A261, 1-(2-((7-(2-amino-7-fluorobenzo[d]thiazol-4-yl)-6-chloro-8-fluoro-2-(((2R,7aS)-2-fluorotetrahydro-1H-pyrrolizin-7a(5H)-yl)methoxy)quinazolin-4-yl)amino)ethyl)-4-(1H-1,2,4-triazole-1-carbonyl)piperazin-2-one]",A (A: indicates that the ratio of IC50 against KrasG12D vs. IC50 against KrasG12S is 1-fold or greater)
13,"Nc1nc2c(-c3c(Cl)cc4c(N5CCC6(CCN(C(=O)n7cncn7)C6)C5)nc(OC[C@@]56CCCN5C[C@H](F)C6)nc4c3F)ccc(F)c2s1 (stereo partly drawn) [Compound A175, (7-(7-(2-amino-7-fluorobenzo[d]thiazol-4-yl)-6-chloro-8-fluoro-2-(((2R,7aS)-2-fluorotetrahydro-1H-pyrrolizin-7a(5H)-yl)methoxy)quinazolin-4-yl)-2,7-diazaspiro[4.4]nonan-2-yl)(1H-1,2,4-triazol-1-yl)methanone]",A (A: indicates that the ratio of IC50 against KrasG12D vs. IC50 against KrasG12S is 1-fold or greater)
